{"source": "ChEMBL document CHEMBL1144621", "about": "“Pharmacophore modeling and in silico screening for new KDR kinase inhibitors” (Bioorg Med Chem Lett, 2007)", "data": [{"target": "Vascular endothelial growth factor receptor 2 (Homo sapiens, UniProt P35968)", "sequence (P35968 whole entry)": "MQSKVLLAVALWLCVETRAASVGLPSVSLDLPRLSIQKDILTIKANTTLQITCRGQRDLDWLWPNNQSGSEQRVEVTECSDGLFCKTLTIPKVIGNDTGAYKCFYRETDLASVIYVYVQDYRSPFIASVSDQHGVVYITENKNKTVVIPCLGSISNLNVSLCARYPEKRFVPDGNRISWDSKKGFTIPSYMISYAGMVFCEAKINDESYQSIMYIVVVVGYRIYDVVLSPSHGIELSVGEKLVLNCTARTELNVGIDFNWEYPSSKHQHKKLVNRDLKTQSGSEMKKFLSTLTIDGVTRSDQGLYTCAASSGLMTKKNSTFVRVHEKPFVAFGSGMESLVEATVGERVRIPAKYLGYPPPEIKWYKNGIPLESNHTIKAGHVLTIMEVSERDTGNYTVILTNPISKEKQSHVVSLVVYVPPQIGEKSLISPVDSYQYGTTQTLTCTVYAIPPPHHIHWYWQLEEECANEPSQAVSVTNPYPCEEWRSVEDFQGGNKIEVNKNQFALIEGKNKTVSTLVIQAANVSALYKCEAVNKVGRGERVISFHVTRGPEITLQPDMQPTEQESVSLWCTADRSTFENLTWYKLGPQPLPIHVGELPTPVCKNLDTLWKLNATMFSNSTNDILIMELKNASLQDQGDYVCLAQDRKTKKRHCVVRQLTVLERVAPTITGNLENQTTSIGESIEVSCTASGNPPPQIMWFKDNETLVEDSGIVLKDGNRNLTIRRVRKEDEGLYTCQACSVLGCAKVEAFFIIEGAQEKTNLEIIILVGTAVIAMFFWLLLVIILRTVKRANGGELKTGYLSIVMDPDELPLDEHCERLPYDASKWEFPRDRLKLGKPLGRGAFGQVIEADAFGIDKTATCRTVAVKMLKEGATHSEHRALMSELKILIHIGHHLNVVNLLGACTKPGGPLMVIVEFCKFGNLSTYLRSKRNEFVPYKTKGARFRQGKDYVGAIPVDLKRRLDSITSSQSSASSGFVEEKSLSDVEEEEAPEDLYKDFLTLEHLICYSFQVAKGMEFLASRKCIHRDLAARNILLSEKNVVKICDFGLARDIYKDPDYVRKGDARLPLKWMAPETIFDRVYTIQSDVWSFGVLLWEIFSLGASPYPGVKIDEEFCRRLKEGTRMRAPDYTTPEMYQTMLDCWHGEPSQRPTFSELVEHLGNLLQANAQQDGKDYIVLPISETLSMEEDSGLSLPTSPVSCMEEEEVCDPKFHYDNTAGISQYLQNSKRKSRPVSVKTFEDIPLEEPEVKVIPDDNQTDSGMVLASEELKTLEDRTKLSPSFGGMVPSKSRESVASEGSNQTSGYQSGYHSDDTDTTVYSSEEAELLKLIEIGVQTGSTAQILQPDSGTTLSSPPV", "units": {"IC50": "µM"}, "values": [{"smiles": "Cn1cccc1/C=C1/C(=O)Nc2ccccc21", "IC50": 20}, {"smiles": "Cc1cccc2c1/C(=C\\c1ccc[nH]1)C(=O)N2", "IC50": 31}, {"smiles": "O=C1Nc2ccccc2/C1=C\\c1sccc1Br", "IC50": 15.4}]}]}
